Reference: patent US8148373B2, “Compounds” (AstraZeneca AB, priority 2008, dated 2012)

Legend:
[1] = molecular target: T1, Adrenergic β2 (H292 cells) (Homo sapiens, UniProt P07550); test: Assay for Adrenergic β2 Mediated cAMP Production (concentration response, AlphaScreen cAMP detection); type: cell-based; conditions: for EC50: cAMP production, 60 minutes at room temperature, 300 μM rolipram, read-out: β2 pEC50 (converted); for β2 Intrinsic activity: fraction relative to the maximum activity determined for formoterol
T1 construct: endogenous in cells; host or cells: H292 cells
In short: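 Intrinsic activity is relative to the per-experiment formoterol maximum, with pEC50 from a four-parameter logistic fit of cAMP levels quantified by AlphaScreen against standards. Cells (H292) got 300 μM rolipram for 10 min, then compound for 60 min at room temperature, 1% DMSO final.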

[2] = molecular target: T2, human muscarinic acetylcholine M3 receptor (M3-ACh) (Homo sapiens, UniProt P20309); test: Muscarinic 3 Receptor Binding Assay ([3H]NMS competition, SPA); conditions: [3H]NMS 0.1 nM, CHO-K1 cell membranes, 16 hours at room temperature; read-out: M3 pIC50 (converted)
T2 construct: expressed in transfected cells; host or cells: CHO-K1 (Chinese Hamster Ovary) cell membranes
In short: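 Competition SPA binding of 0.1 nM [3H]NMS (quarter Kd) to membranes from CHO-K1 cells expressing human M3, in 20 mM HEPES pH 7.4, 5 mM MgCl2, 1% DMSO. Incubated 16 h at room temperature; non-specific binding with 1 µM atropine. pIC50 from 50% reduction of specific binding.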

T2 sequence (P20309 whole entry): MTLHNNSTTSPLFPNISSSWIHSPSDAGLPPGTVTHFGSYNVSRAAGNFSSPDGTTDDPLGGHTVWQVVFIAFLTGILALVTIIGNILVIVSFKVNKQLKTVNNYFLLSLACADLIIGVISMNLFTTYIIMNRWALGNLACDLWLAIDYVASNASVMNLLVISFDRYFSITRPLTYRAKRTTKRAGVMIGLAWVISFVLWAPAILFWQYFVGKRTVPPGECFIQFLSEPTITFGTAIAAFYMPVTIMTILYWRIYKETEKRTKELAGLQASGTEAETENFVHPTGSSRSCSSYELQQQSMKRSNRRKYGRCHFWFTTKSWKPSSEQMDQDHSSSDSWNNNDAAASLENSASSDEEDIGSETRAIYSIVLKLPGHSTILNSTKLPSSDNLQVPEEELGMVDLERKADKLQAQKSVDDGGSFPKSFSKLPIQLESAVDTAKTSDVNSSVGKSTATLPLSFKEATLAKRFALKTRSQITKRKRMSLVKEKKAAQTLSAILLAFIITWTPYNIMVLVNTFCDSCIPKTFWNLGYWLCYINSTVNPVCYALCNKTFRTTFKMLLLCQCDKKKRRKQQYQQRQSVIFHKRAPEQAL
T1 sequence (P07550 whole entry): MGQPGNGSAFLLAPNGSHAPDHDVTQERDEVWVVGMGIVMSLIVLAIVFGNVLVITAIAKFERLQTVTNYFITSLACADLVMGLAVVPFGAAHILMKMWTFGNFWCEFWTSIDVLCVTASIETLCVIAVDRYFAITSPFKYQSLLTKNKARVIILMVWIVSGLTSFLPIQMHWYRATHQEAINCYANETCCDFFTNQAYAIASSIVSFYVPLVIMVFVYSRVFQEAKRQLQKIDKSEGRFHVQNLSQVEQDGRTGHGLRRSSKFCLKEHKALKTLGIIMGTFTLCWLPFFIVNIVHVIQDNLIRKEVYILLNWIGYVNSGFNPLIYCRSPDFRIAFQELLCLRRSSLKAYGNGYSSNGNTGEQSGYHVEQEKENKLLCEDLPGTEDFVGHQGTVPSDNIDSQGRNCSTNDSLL

SMILES | EC50 [1] | β2 Intrinsic activity [1] | IC50 [2]
CC(C)c1nc(C(=O)N2CCOC3(CCN(CCOc4ccc(CCNC[C@H](O)c5ccc(O)c6[nH]c(=O)ccc56)c(F)c4F)CC3)C2)cs1 [Example 77, (R)-5-(2-(2,3-Difluoro-4-(2-(4-(2-isopropylthiazole-4-carbonyl)-1-oxa-4,9-diazaspiro[5.5]undecan-9-yl)ethoxy)phenethylamino)-1-hydroxyethyl)-8-hydroxyquinolin-2(1H)-one ditrifluoroacetate] | 79.4 nM | 1 | 2.51 nM
CCCCc1nc(C(=O)N2CCOC3(CCN(Cc4cccc(CCNC[C@H](O)c5ccc(O)c6[nH]c(=O)sc56)c4F)CC3)C2)cs1 [Example 78, (R)-7-(2-(3-((4-(2-Butylthiazole-4-carbonyl)-1-oxa-4,9-diazaspiro[5.5]undecan-9-yl)methyl)-2-fluorophenethylamino)-1-hydroxyethyl)-4-hydroxybenzo[d]thiazol-2(3H)-one ditrifluoroacetate] | 15.8 nM | 0.9 | 10 nM
O=C(c1cc2ccccc2s1)N1CCOC2(CCN(Cc3cccc(CCNC[C@H](O)c4ccc(O)c5[nH]c(=O)sc45)c3F)CC2)C1 [Example 79, (R)-7-(2-(3-((4-(Benzo[b]thiophene-2-carbonyl)-1-oxa-4,9-diazaspiro[5.5]undecan-9-yl)methyl)-2-fluorophenethylamino)-1-hydroxyethyl)-4-hydroxybenzo[d]thiazol-2(3H)-one ditrifluoroacetate] | 6.31 nM | 0.9 | 126 nM
CC(C)c1nc(C(=O)N2CCOC3(CCN(Cc4cccc(CCNC[C@H](O)c5ccc(O)c6[nH]c(=O)sc56)c4Cl)CC3)C2)cs1 [Example 80, (R)-7-(2-(2-Chloro-3-((4-(2-isopropylthiazole-4-carbonyl)-1-oxa-4,9-diazaspiro[5.5]undecan-9-yl)methyl)phenethylamino)-1-hydroxyethyl)-4-hydroxybenzo[d]thiazol-2(3H)-one ditrifluoroacetate] | 6.31 nM | 0.8 | 5.01 nM
CC(C)c1nc(C(=O)N2CCOC3(CCN(Cc4cccc(CCNC[C@H](O)c5ccc(O)c6[nH]c(=O)ccc56)c4Cl)CC3)C2)cs1 [Example 81, (R)-5-(2-(2-Chloro-3-((4-(2-isopropylthiazole-4-carbonyl)-1-oxa-4,9-diazaspiro[5.5]undecan-9-yl)methyl)phenethylamino)-1-hydroxyethyl)-8-hydroxyquinolin-2(1H)-one ditrifluoroacetate] | 7.94 nM | 0.7 | 6.31 nM
CC(C)c1cc(C(=O)N2CCOC3(CCN(Cc4cccc(CCNC[C@H](O)c5ccc(O)c6[nH]c(=O)sc56)c4)CC3)C2)cs1 [Example 82, (R)-4-Hydroxy-7-(1-hydroxy-2-(3-((4-(5-isopropylthiophene-3-carbonyl)-1-oxa-4,9-diazaspiro[5.5]undecan-9-yl)methyl)phenethylamino)ethyl)benzo[d]thiazol-2(3H)-one ditrifluoroacetate] | 3.98 nM | 0.9 | 0.398 nM
CC(C)c1cc(C(=O)N2CCOC3(CCN(Cc4cccc(CCNC[C@H](O)c5ccc(O)c6[nH]c(=O)ccc56)c4)CC3)C2)cs1 [Example 83, (R)-8-Hydroxy-5-(1-hydroxy-2-(3-((4-(5-isopropylthiophene-3-carbonyl)-1-oxa-4,9-diazaspiro[5.5]undecan-9-yl)methyl)phenethylamino)ethyl)quinolin-2(1H)-one ditrifluoroacetate] | 12.6 nM | 0.8 | 0.501 nM
CC(C)Cc1nc(C(=O)N2CCOC3(CCN(Cc4cccc(CCNC[C@H](O)c5ccc(O)c6[nH]c(=O)sc56)c4)CC3)C2)cs1 [Example 84, (R)-4-Hydroxy-7-(1-hydroxy-2-(3-((4-(2-isobutylthiazole-4-carbonyl)-1-oxa-4,9-diazaspiro[5.5]undecan-9-yl)methyl)phenethylamino)ethyl)benzo[d]thiazol-2(3H)-one ditrifluoroacetate] | 5.01 nM | 0.9 | 0.794 nM
